Patent US20220347175A1, “PYRIDAZINONE DERIVATIVE” (Sumitomo Dainippon Pharma Co., Ltd., priority 2018, published 2022)

Assays:
human Nav1.5 = biological target: T1, human Nav1.5 (Homo sapiens, UniProt Q14524); experiment: Amplification of Nav1.5-derived voltage-dependent sodium current (Nav1.5 current), cell line stably expressing human Nav1.5, automated patch clamp; format: cell-based; conditions: for activation at 10 µM / activation at 1 µM / activation at 3 µM: read-out: Nav1.5 current amplification rate (%)
T1 construct: expressed in transfected cells; host or cells: CHO-K1 (T-REx System, ThermoFisher Scientific)

human Nav1.1 = biological target: T2, human Nav1.1 (Homo sapiens, UniProt P35498); experiment: Amplification of Nav1.1-derived voltage-dependent sodium current (Nav1.1 current), cell line stably expressing human Nav1.1, automated patch clamp; format: cell-based; conditions: for activation at 10 µM / activation at 1 µM / activation at 3 µM: read-out: Nav1.1 current amplification rate (%)
T2 construct: host or cells: HEK293
Procedure, shortened: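 Amplification rate (%) is 100 × post-compound/pre-compound Nav1.1 peak current or AUC, minus 100. Ramp-evoked sodium currents were recorded by automated patch clamp in a human Nav1.1 HEK293 stable line, restricted to cells exceeding 500 pA, with compounds added in extracellular solution containing 1% DMSO.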

[1] = 10 μmol/L compound, change of the area under the curve of Nav1.5 current (Test Result 1)
[2] = 10 μmol/L compound, change of the area under the curve of Nav1.1 current (Test Result 1)
[3] = compound 1 μmol/L, CHO-K1 stably expressing human Nav1.5
[4] = compound 1 μmol/L, HEK293 stably expressing human Nav1.1
[5] = compound 3 μmol/L, CHO-K1 stably expressing human Nav1.5
[6] = compound 3 μmol/L, HEK293 stably expressing human Nav1.1

T1 sequence (Q14524 1-2015 isoform Q14524-2): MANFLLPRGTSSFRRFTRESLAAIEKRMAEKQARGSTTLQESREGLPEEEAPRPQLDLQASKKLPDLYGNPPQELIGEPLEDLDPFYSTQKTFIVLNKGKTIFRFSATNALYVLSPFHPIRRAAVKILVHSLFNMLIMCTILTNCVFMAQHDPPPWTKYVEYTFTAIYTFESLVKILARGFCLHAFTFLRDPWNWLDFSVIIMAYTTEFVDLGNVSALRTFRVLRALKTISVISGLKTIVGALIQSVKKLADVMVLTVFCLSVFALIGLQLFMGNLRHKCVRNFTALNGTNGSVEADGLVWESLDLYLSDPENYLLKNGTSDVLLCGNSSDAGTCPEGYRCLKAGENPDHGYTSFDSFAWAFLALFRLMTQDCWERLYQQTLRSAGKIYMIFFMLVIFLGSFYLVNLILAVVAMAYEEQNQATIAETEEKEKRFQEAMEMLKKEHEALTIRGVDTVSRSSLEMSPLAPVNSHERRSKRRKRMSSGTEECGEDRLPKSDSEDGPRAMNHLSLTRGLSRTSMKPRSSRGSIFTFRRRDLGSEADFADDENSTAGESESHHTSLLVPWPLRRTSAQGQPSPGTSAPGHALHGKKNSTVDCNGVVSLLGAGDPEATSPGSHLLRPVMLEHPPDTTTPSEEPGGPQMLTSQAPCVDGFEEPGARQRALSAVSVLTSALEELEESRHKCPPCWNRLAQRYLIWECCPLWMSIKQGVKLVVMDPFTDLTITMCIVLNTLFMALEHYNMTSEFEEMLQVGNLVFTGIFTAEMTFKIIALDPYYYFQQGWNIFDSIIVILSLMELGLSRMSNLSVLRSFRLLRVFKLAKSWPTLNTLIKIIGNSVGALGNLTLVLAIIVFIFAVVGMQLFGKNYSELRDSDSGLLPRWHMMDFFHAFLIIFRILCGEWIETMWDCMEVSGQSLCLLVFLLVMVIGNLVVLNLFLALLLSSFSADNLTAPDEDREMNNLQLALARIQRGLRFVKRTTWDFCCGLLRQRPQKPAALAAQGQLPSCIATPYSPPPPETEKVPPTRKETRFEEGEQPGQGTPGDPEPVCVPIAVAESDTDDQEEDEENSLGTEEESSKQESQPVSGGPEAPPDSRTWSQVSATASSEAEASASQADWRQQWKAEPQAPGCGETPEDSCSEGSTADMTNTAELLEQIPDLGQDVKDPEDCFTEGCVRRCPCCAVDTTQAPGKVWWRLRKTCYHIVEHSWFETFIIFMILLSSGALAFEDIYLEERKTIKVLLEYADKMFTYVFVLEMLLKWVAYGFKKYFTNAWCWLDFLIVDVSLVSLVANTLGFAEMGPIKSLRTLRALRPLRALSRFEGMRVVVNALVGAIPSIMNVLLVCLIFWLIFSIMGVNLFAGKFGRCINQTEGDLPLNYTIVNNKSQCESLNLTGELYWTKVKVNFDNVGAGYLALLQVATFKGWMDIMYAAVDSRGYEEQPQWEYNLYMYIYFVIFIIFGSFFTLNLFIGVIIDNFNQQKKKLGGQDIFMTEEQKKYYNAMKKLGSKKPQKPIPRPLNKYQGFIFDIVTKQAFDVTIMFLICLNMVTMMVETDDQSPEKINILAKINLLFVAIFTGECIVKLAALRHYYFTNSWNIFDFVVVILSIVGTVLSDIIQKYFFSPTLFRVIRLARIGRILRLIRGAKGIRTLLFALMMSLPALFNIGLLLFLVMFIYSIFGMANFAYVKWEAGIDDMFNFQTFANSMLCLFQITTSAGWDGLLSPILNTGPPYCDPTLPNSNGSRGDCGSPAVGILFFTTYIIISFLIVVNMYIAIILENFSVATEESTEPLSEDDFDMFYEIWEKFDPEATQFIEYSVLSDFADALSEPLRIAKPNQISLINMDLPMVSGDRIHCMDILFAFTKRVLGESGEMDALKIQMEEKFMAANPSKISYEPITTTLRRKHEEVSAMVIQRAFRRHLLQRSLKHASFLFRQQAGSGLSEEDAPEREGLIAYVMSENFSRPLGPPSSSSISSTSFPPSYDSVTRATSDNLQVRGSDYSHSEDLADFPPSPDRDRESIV

SMILES: O=C(Cn1nc(N2CCC3(CCC3)CC2)ccc1=O)Nc1cccc(-n2ccnc2)c1 [Example 125]
- activation at 10 µM (human Nav1.5; [1]): 34%
- activation at 10 µM (human Nav1.1; [2]): 220%

SMILES: O=C(Cn1nc(C2=CCC(F)(F)CC2)ccc1=O)N1CCc2c(-c3ccnnc3)cccc21 [Example 527]
- activation at 1 µM (human Nav1.5; [3]): 36%
- activation at 1 µM (human Nav1.1; [4]): 324%

SMILES: Cc1cc(C2=CCC(C)(C)CC2)nn(CC(=O)N2CCN(c3cccnc3)CC2)c1=O [Example 513]
- activation at 10 µM (human Nav1.5; [1]): 4%
- activation at 10 µM (human Nav1.1; [2]): 262%

SMILES: C[C@H]1CC=C(c2ccc(=O)n(CC(=O)Nc3ccn4ncnc4c3)n2)CC1 [Example 538, 2-{3-[(4R)-4-methylcyclohex-1-en-1-yl]-6-oxopyridazin-1(6H)-yl}-N-([1,2,4]triazolo[1,5-a]pyridin-7-yl)acetamide]
- activation at 1 µM (human Nav1.5; [3]): 45%
- activation at 1 µM (human Nav1.1; [4]): 135%

SMILES: Cc1noc2ccc(NC(=O)Cn3nc(N4CCC(C)CC4)ccc3=O)cc12 [Example 70]
- Nav1.5 current amplification rate (%) (human Nav1.5; [1]): 0%
- Nav1.1 current amplification rate (%) (human Nav1.1; [2]): 68%

SMILES: CC1CC=C(c2ccc(=O)n(CC(=O)Nc3ccc4oc(N(C)C)nc4c3)n2)CC1 (centres unmarked) [Example 244, N-[2-(dimethylamino)-1,3-benzooxazol-5-yl]-2-[3-(4-methylcyclohex-1-en)-6-oxopyridazin-1(6H)-yl]acetamide]
- activation at 3 µM (human Nav1.5; [5]): 21%
- activation at 3 µM (human Nav1.1; [6]): 263%

SMILES: CC1(C)CCN(c2ccc(=O)n(CC(=O)N3CCc4c(-c5cccnc5)cccc43)n2)CC1 [Example 234]
- activation at 1 µM (human Nav1.5; [3]): 4%
- activation at 1 µM (human Nav1.1; [4]): 240%

SMILES: Cc1nc2cc(NC(=O)Cn3nc(N4CCC(C)CC4)ccc3=O)ccc2s1 [Example 88]
- Nav1.5 current amplification rate (%) (human Nav1.5; [1]): 31%
- Nav1.1 current amplification rate (%) (human Nav1.1; [2]): 183%

SMILES: CC1(C)CC=C(c2ccc(=O)n(CC(=O)Nc3ccn4ccnc4c3)n2)CC1 [Example 425]
- Nav1.5 current amplification rate (%) (human Nav1.5; [1]): 60%
- Nav1.1 current amplification rate (%) (human Nav1.1; [2]): 283%

SMILES: CC1CC=C(c2ccc(=O)n(CC(=O)N3CCN(c4ccccn4)CC3)n2)CC1 (racemic) [Example 394]
- Nav1.5 current amplification rate (%) (human Nav1.5; [1]): 1%
- Nav1.1 current amplification rate (%) (human Nav1.1; [2]): 98%

SMILES: CC1CC=C(c2ccc(=O)n(CC(=O)Nc3ccn4ccnc4n3)n2)CC1 (racemic) [Example 242]
- Nav1.5 current amplification rate (%) (human Nav1.5; [1]): 10%
- Nav1.1 current amplification rate (%) (human Nav1.1; [2]): 97%

SMILES: CC1CC=C(c2ccc(=O)n(CC(=O)Nc3cccc(N4CCOCC4)c3F)n2)CC1 (racemic) [Example 322]
- Nav1.5 current amplification rate (%) (human Nav1.5; [5]): 18%
- Nav1.1 current amplification rate (%) (human Nav1.1; [6]): 115%

SMILES: O=C(Cn1nc(N2CCC3(CCCC3)C2)ccc1=O)Nc1ccc2scnc2c1 [Example 128]
- activation at 10 µM (human Nav1.5; [1]): 56%
- activation at 10 µM (human Nav1.1; [2]): 240%

SMILES: CC1CC=C(c2ccc(=O)n(CC(=O)N3CCc4c(Cn5cncn5)cccc43)n2)CC1 (racemic) [Example 294]
- Nav1.5 current amplification rate (%) (human Nav1.5; [3]): 427%
- Nav1.1 current amplification rate (%) (human Nav1.1; [4]): 271%

SMILES: Cc1cc(NC(=O)Cn2nc(N3CCC4(CCCC4)C3)c(C)cc2=O)cc(C)n1 [Example 199]
- activation at 10 µM (human Nav1.5; [1]): 1%
- activation at 10 µM (human Nav1.1; [2]): 36%

SMILES: CC1CC=C(c2ccc(=O)n(CC(=O)N3CCc4c3ccnc4N3CCOCC3)n2)CC1 (racemic) [Example 319]
- Nav1.5 current amplification rate (%) (human Nav1.5; [3]): 30%
- Nav1.1 current amplification rate (%) (human Nav1.1; [4]): 134%

SMILES: CC1(C)CCN(c2ccc(=O)n(CC(=O)N3CCc4c(N5CCOCC5)cccc43)n2)CC1 [Example 221]
- activation at 10 µM (human Nav1.5; [1]): 15%
- activation at 10 µM (human Nav1.1; [2]): 281%

SMILES: COc1nc2cc(NC(=O)Cn3nc(N4CCC(C)CC4)ccc3=O)ccc2o1 [Example 99]
- Nav1.5 current amplification rate (%) (human Nav1.5; [1]): 4%
- Nav1.1 current amplification rate (%) (human Nav1.1; [2]): 103%

SMILES: CC1CCN(c2ccc(=O)n(CC(=O)Nc3cncc(C(F)(F)F)c3)n2)CC1 [Example 61]
- Nav1.5 current amplification rate (%) (human Nav1.5; [1]): 8%
- Nav1.1 current amplification rate (%) (human Nav1.1; [2]): 77%

SMILES: Cc1ccc(N2CCN(C(=O)Cn3nc(C4=CCC(C)(C)CC4)ccc3=O)CC2)cn1 [Example 443]
- Nav1.5 current amplification rate (%) (human Nav1.5; [1]): 1%
- Nav1.1 current amplification rate (%) (human Nav1.1; [2]): 114%

SMILES: Cc1ncc(-c2cccc3c2CCN3C(=O)Cn2nc(C3=CCC(C)CC3)ccc2=O)cn1 (racemic) [Example 264]
- Nav1.5 current amplification rate (%) (human Nav1.5; [5]): 65%
- Nav1.1 current amplification rate (%) (human Nav1.1; [6]): 597%

SMILES: C[C@@H]1CC=C(c2ccc(=O)n(CC(=O)Nc3ccn4ncnc4c3)n2)CC1 [Example 537, 2-{3-[(4S)-4-methylcyclohex-1-en-1-yl]-6-oxopyridazin-1(6H)-yl}-N-([1,2,4]triazolo[1,5-a]pyridin-7-yl)acetamide]
- activation at 1 µM (human Nav1.5; [3]): 29%
- activation at 1 µM (human Nav1.1; [4]): 99%

SMILES: N#Cc1ccc(NC(=O)Cn2nc(C3=CCC(F)(F)CC3)ccc2=O)cn1 [Example 109]
- activation at 10 µM (human Nav1.5; [1]): 23%
- activation at 10 µM (human Nav1.1; [2]): 57%

SMILES: COc1cc(C2=CCC(C)C2)nn(CC(=O)N2CCN(c3cncc(F)c3)CC2)c1=O (centres unmarked) [Example 485]
- Nav1.5 current amplification rate (%) (human Nav1.5; [1]): 3%
- Nav1.1 current amplification rate (%) (human Nav1.1; [2]): 264%

SMILES: CC1CC=C(c2ccc(=O)n(CC(=O)N3CCc4c(-c5cn[nH]c5)cncc43)n2)CC1 (racemic) [Example 311]
- Nav1.5 current amplification rate (%) (human Nav1.5; [3]): 52%
- Nav1.1 current amplification rate (%) (human Nav1.1; [4]): 265%

SMILES: COc1cc(=O)n(CC(=O)Nc2ccn3ccnc3c2)nc1C1=CCC(C)(C)CC1 [Example 459]
- Nav1.5 current amplification rate (%) (human Nav1.5; [1]): 21%
- Nav1.1 current amplification rate (%) (human Nav1.1; [2]): 118%

SMILES: O=C(Cn1nc(N2CCC3(CCC3)C2)ccc1=O)Nc1ccc2ocnc2c1 [Example 131]
- activation at 10 µM (human Nav1.5; [1]): 7%
- activation at 10 µM (human Nav1.1; [2]): 227%

SMILES: O=C(Cn1nc(C2=CCC(F)(F)CC2)ccc1=O)Nc1ccnc(C(F)(F)F)c1 [Example 114]
- activation at 10 µM (human Nav1.5; [1]): 12%
- activation at 10 µM (human Nav1.1; [2]): 83%

SMILES: CC1CCN(c2ccc(=O)n(CC(=O)Nc3ccc4oc(=O)n(C)c4c3)n2)CC1 [Example 81]
- Nav1.5 current amplification rate (%) (human Nav1.5; [1]): 21%
- Nav1.1 current amplification rate (%) (human Nav1.1; [2]): 69%

SMILES: CC1(C)CC=C(c2ccc(=O)n(CC(=O)N3CCN(c4cncc(F)c4)CC3)n2)CC1 [Example 444]
- Nav1.5 current amplification rate (%) (human Nav1.5; [1]): 10%
- Nav1.1 current amplification rate (%) (human Nav1.1; [2]): 292%

SMILES: COc1cc(=O)n(CC(=O)Nc2ccc3oc(C)nc3c2)nc1C1=CCC(C)(C)CC1 [Example 492]
- activation at 3 µM (human Nav1.5; [5]): 16%
- activation at 3 µM (human Nav1.1; [6]): 222%

SMILES: CC1CCN(c2ccc(=O)n(CC(=O)Nc3ccc(C(=O)N4CCCC4)cc3)n2)CC1 [Example 79]
- Nav1.5 current amplification rate (%) (human Nav1.5; [1]): 4%
- Nav1.1 current amplification rate (%) (human Nav1.1; [2]): 165%

SMILES: CC1CCN(c2ccc(=O)n(CC(=O)Nc3cc(Cl)c4ocnc4c3)n2)CC1 [Example 94]
- Nav1.5 current amplification rate (%) (human Nav1.5; [1]): 29%
- Nav1.1 current amplification rate (%) (human Nav1.1; [2]): 198%

SMILES: COc1cc(C2=CCC(C(F)(F)F)CC2)nn(CC(=O)N2CCc3c(N4CCOCC4)cccc32)c1=O (racemic) [Example 474]
- Nav1.5 current amplification rate (%) (human Nav1.5; [1]): 26%
- Nav1.1 current amplification rate (%) (human Nav1.1; [2]): 235%
